For this assay, the target named is T1, α4β1 integrin (Homo sapiens, UniProt P05556+P13612).
T1 construct: endogenous in cells; host or cells: Ramos cells
As to the kind of experiment: Inhibition of adhesion of calcein AM-labeled Ramos cells to CS1 (fibronectin) peptide-conjugated ovalbumin. The format is cell-based. The note with it: Ramos cell adhesion to CS1-conjugated ovalbumin, 30 minutes at 37° C. As for the experimental part:
The ability of compounds of the present invention to inhibit binding is determined by a procedure in which a 26-amino acid peptide containing the CS1 sequence of fibronectin with an N-terminal Cys ([…]) was coupled to maleimide activated ovalbumin. Bovine serum albumin (BSA) and CS1 conjugated ovalbumin were coated onto 96-well polystyrene plates at 0.5 mg/ml in TBS (50 mM Tris, pH 7.5; 150 mM NaCl) at 4° C. for 16 hours. The plates were washed three times with TBS and blocked with TBS containing 3% BSA at room temperature for 4 hours. Blocked plates were washed three times in binding buffer (TBS; 1 mM MgCl2; 1 mM CaCl2; 1 mM MnCl2) prior to assay. Ramos cells fluorescently labeled with calcein AM were resuspended in binding buffer (10^7 cells/ml) and diluted 1:2 with same buffer with or without compound. The cells were added immediately to the wells (2.5×10^5 cells/well) and incubated for 30 minutes at 37° C. Following three washes with binding buffer, adherent cells were lysed and quantitated using a fluorometer. IC50 is defined as the dose required to give 50% inhibition. MS in Table 3 stands for Mass Spec. nd stands for not determined in the Tables. A stands for inhibition in Table 2, and the percent inhibition indicates the inhibition of cell adhesion when compound is included in the assay at a concentration of 100 μM. The lower the IC50 value and the greater the percentage of inhibition, the more efficient the compound is at prevention of cell adhesion.

Drawing on US20030199692A1, “Propanoic acid derivatives that inhibit the binding of integrins to their receptors” (priority 1999, published 2003), this text covers IC50 for eleven molecules.

The structures appear in SMILES notation. Where only a bound is given, the exact number is not on record here.

T1 sequence (P13612 34-1032): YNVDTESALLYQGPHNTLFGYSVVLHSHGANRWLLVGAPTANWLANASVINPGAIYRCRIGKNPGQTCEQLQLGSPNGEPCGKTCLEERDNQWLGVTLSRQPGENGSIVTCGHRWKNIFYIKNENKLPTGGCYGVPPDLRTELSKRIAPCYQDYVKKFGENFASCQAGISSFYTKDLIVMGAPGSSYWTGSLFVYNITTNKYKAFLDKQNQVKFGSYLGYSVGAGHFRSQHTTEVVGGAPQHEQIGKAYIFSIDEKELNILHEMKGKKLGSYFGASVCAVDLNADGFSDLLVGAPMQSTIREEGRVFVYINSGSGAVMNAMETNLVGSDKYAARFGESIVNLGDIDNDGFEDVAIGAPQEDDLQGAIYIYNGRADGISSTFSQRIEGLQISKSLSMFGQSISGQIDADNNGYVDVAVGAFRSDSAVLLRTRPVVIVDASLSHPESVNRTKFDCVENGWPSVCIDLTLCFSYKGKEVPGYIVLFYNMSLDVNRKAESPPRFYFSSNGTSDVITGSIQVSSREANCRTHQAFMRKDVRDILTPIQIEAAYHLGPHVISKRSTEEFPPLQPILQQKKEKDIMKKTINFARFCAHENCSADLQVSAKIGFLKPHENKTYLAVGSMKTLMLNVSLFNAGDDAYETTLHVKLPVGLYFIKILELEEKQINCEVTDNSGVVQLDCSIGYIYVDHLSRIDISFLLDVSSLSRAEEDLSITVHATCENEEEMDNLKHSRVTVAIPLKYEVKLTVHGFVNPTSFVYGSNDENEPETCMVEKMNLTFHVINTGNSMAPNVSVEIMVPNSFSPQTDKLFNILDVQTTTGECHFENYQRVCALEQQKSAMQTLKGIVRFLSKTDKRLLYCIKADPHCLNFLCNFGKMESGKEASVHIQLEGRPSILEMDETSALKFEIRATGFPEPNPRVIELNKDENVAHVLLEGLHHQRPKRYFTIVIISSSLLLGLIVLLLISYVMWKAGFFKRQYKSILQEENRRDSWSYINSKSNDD
T1 sequence (P05556 21-798): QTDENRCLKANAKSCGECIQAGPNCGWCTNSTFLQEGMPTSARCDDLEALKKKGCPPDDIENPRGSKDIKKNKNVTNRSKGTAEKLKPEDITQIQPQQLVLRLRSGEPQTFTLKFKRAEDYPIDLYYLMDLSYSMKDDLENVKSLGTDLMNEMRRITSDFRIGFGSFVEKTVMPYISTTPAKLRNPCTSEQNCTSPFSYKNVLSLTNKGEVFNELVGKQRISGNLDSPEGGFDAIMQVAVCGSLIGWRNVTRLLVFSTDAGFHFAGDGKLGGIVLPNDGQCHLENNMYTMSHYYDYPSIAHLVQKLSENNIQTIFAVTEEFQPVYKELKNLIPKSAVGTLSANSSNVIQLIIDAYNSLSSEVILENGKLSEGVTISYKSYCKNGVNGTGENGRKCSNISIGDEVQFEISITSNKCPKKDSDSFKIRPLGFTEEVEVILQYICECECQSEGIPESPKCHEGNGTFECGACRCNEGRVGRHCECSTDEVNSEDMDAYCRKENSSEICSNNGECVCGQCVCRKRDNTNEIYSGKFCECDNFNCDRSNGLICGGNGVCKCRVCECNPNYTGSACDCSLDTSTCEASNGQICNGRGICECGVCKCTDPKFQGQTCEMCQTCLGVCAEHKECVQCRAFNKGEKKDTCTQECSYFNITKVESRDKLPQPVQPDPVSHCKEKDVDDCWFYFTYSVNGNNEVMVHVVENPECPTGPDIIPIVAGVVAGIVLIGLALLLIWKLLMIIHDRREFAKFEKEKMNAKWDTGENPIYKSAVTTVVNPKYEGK

On to `CCCCC(C(=O)N[C@@H](CC(=O)O)c1ccc2c(c1)OCO2)n1cc(C)cc(Cc2ccccc2)c1=O` (mixture of isomers) [Compound 8, (3S)-3-(1,3-benzodioxol-5-yl)-3-((2R,S)-2-(3-benzyl-5-methyl-2-oxo-1(2H)-pyridinyl)hexanoylamino)propanoic acid], for which, where the note is “Table 1”, the concentration for half-maximal inhibition (IC50) (usually the point on the concentration scale where inhibition reaches its midpoint) is 7 nM.
With `CCCCC(C(=O)N[C@@H](CC(=O)O)c1ccc2c(c1)CCO2)n1cc(C)cc(Cc2ccccc2)c1=O` (mixture of isomers) [Compound 12, (3S)-3-((2R,S)-2-(3-benzyl-5-methyl-2-oxo-1(2H)-pyridinyl)hexanoylamino)-3-(2,3-dihydro-1-benzofuran-5-yl)propanoic acid], the 50% inhibitory concentration (IC50) (Table 1) is 40 nM.
Still for that read-out and setting: for `CCCCC(C(=O)N[C@@H](CC(=O)O)c1ccc(C)cc1)n1cc(C)cc(Cc2ccccc2)c1=O` (mixture of isomers) [Compound 13, (3S)-3-((2R,S)-2-(3-benzyl-5-methyl-2-oxo-1(2H)-pyridinyl)hexanoylamino)-3-(4-methylphenyl)propanoic acid] the value was 70 nM; for `CCCCC(C(=O)N[C@@H](CC(=O)O)c1ccc(F)cc1)n1cc(C)cc(Cc2ccccc2)c1=O` (mixture of isomers) [Compound 14, (3S)-3-((2R,S)-2-(3-benzyl-5-methyl-2-oxo-1(2H)-pyridinyl)hexanoylamino)-3-(4-fluorophenyl)propanoic acid], 150 nM.
The same measure, in the same setting: the result for `CCCCC(C(=O)N[C@@H](CC(=O)O)c1ccc2c(c1)OCO2)n1cc(C)cc(Cc2ccc(OC)cc2)c1=O` (mixture of isomers) [Compound 15, (3S)-3-(1,3-benzodioxol-5-yl)-3-((2R,S)-2-(3-(4-methoxybenzyl)-5-methyl-2-oxo-1(2H)-pyridinyl)hexanoylamino)propanoic acid] reads 30 nM; that for `CCCCC(C(=O)N[C@@H](CC(=O)O)c1ccc2c(c1)OCO2)n1cc(C)cc(Cc2ccc(C)cc2)c1=O` (mixture of isomers) [Compound 16, (3S)-3-(1,3-benzodioxol-5-yl)-3-((2R,S)-2-(3-(4-methylbenzyl)-5-methyl-2-oxo-1(2H)-pyridinyl)hexanoylamino)propanoic acid], 35 nM.
Same read-out and setting: for `CCCCC(C(=O)N[C@@H](CC(=O)O)c1ccc2c(c1)OCO2)n1cc(C)cc(Cc2ccc(F)cc2)c1=O` (mixture of isomers) [Compound 17, (3S)-3-(1,3-benzodioxol-5-yl)-3-((2R,S)-2-(3-(4-fluorobenzyl)-5-methyl-2-oxo-1(2H)-pyridinyl)hexanoylamino)propanoic acid] the value was 60 nM; for `CCCCC(C(=O)N[C@@H](CC(=O)O)c1ccc2c(c1)OCO2)n1cc(C)cc(Cc2cccc(Cl)c2)c1=O` (mixture of isomers) [Compound 19, (3S)-3-(1,3-benzodioxol-5-yl)-3-((2R,S)-2-(3-(3-chlorobenzyl)-5-methyl-2-oxo-1(2H)-pyridinyl)hexanoylamino)propanoic acid], 6 nM.
For `CCCCC(C(=O)N[C@@H](C(=O)O)c1ccccc1)n1cc(C)cc(Cc2ccccc2)c1=O` (stereo partly drawn) [(2R)-2-({2-[5-methyl-2-oxo-3-(phenylmethyl)-1(2H)-pyridinyl]hexanoyl}amino)-2-phenylethanoic acid], under “Table 4”, the IC50 is above 10000 nM.
The same measure, in the same setting: for `CCCCC(C(=O)N[C@H](Cc1ccccc1)C(=O)O)n1cc(C)cc(Cc2ccccc2)c1=O` (stereo partly drawn) [(2R)-2-({2-[5-methyl-2-oxo-3-(phenylmethyl)-1(2H)-pyridinyl]hexanoyl}amino)-3-phenylpropanoic acid] the value was 5000 nM; for `CCCCC(C(=O)N[C@@H](Cc1ccccc1)C(=O)O)n1cc(C)cc(Cc2ccccc2)c1=O` (stereo partly drawn) [(2S)-2-({2-[5-methyl-2-oxo-3-phenylmethyl)-1(2H)-pyridinyl]hexanoyl}amino)-3-phenylpropanoic acid], above 10000 nM.
